# The source made the active and inactive calls.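 The calls were made as follows: active = PP1 inhibition of at least 30% at 50 µM, though none qualified; inactive = the rest.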
# Biological target: Serine/threonine-protein phosphatase PP1-alpha catalytic subunit (Homo sapiens) (UniProt P62136)
# Test: inhibitors of PP1 histone dephosphorylation – biochemical, 33P-phosphohistone, radiolabel, single concentration, round 5, selectivity assay for PP5 inhibitor project, late-stage follow-up (AID 624437)
# Conditions: purified PP1alpha, 33P-phosphohistone dephosphorylation, scintillation; at 50 µM; hits give high values
# Serine/threonine-protein phosphatase PP1-alpha catalytic subunit (Homo sapiens), sequence (P62136 whole entry, looked up): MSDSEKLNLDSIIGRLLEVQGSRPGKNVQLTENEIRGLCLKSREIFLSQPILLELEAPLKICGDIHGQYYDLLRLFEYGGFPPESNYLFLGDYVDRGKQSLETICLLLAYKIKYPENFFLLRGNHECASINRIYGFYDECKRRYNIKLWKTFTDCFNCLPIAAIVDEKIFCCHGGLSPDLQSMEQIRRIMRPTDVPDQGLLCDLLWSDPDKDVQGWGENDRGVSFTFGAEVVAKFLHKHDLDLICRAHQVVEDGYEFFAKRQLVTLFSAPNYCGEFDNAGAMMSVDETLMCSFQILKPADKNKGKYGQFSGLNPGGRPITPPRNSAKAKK
row,SMILES,inhibition
1,O=C(O)c1n[nH]nc1-c1ccccc1F,20.5% (inactive)
2,COc1ccccc1-c1n[nH]nc1C(=O)O,23.3% (inactive)
3,O=C(O)c1n[nH]nc1-c1ccc(F)cc1,10.4% (inactive)
4,COc1ccc(-c2n[nH]nc2C(=O)O)cc1,1.04% (inactive)
5,COc1cccc(-c2n[nH]nc2C(=O)O)c1,11.1% (inactive)
6,O=C(O)c1n[nH]nc1-c1ccccc1O,10.9% (inactive)
7,O=C(O)c1n[nH]nc1-c1cccc(F)c1,10.3% (inactive)
